Assay results from patent publication US9051342B2 (priority 2004, dated 2015).
“And” between values parts separate entries of the source, which are not always exact repeats. Equal entries are not always repeated. Structures can show the parent of a compound that is named as a salt.

In the case of `CC(C)c1ccc(-n2cnc(-c3cccc(C(=O)O)c3)c2)cc1`, the melting point is reported as 225 to 226 °C.
In the case of `COc1cccc(-n2cnc(-c3ccc(C(=O)O)cc3)n2)c1`, the melting point is reported as 203 to 205 °C.
`O=C(O)c1cccc(-c2ccn(-c3ccc(C(F)(F)F)cc3)c2)c1` (as salt: sodium) [Compound 154, 3-[1-(4-Trifluoromethyl-phenyl)-]-1H-pyrrol-3-yl]-benzoic acid sodium salt] gave a melting point of 224 to 226 °C.
In the case of `CC(C)c1ccc(-c2cn(-c3cccc(C(=O)O)c3)c(N)n2)cc1` [Compound 1, 3-[2-amino-4-(4-isopropylphenyl)-1H-imidazol-1-yl]benzoic acid], the melting point is reported as 279 to 282 °C (dec.).
Work on `CC(C)c1ccc(-c2ccn(-c3cccc(C(=O)O)c3)n2)cc1` [Compound 5, 3-[3-(4-Isopropyl-phenyl)-pyrazol-1-yl]-benzoic acid] yielded a melting point of 215 to 216 °C.
Compound `CC(C)c1ccc(-n2ccc(-c3cccc(C(=O)O)c3)c2)cc1` [Compound 6, 3-[1-(4-Isopropyl-phenyl)-1H-pyrrol-3-yl]-benzoic acid] has a melting point of 210 to 215 °C.
`O=C(O)c1cccc(-n2cnc(-c3ccccc3)n2)c1` [Compound 8, 3-(3-Phenyl-[1,2,4]triazol-1-yl)-benzoic acid] showed a melting point of 268 to 271 °C.
With `O=C(O)c1cccc(-n2cnc(-c3ccc(O)cc3)n2)c1` [Compound 9, 3-[3-(4-Hydroxy-phenyl)-[1,2,4]triazol-1-yl]-benzoic acid] the melting point was 307 to 311 °C.
Work on `O=C(O)c1cccc(-n2cnc(-c3ccc(OCc4ccccc4)cc3)n2)c1` [Compound 10, 3-[3-(4-Benzyloxy-phenyl)-[1,2,4]triazol-1-yl]-benzoic acid] yielded a melting point of 259 to 261 °C.
Work on `COc1ccc(-c2ncn(-c3cccc(C(=O)O)c3)n2)cc1` [Compound 11, 3-[3-(4-Methoxy-phenyl)-[1,2,4]triazol-1-yl]-benzoic acid] yielded a melting point of 268 to 270 °C.
For `COc1ccc(-n2cnc(-c3cccc(C(=O)O)c3)n2)cc1` [Compound 12, 3-[1-(4-Methoxy-phenyl)-1H-[1,2,4]triazol-3-yl]-benzoic acid], the melting point was 230 to 232 °C.
`O=C(O)c1cccc(-c2ncn(-c3ccc(F)cc3)n2)c1` [Compound 13, 3-[1-(4-Fluoro-phenyl)-1H-[1,2,4]triazol-3-yl]-benzoic acid] gave a melting point of over 310 °C.
Work on `Cc1ccc(-n2cnc(-c3cccc(C(=O)O)c3)n2)cc1` [Compound 14, 3-(1-p-Tolyl-1H-[1,2,4]triazol-3-yl)-benzoic acid] yielded a melting point of 263 to 265 °C.
`CC(C)c1ccc(-n2cnc(-c3cccc(C(=O)O)c3)n2)cc1` [Compound 15, 3-[1-(4-Isopropyl-phenyl)-1H-[1,2,4]triazol-3-yl]-benzoic acid] gave a melting point of 173 to 175 °C.
With `O=C(O)c1cccc(-c2ncn(-c3ccc(F)cc3F)n2)c1` [Compound 16, 3-[1-(2,4-Difluoro-phenyl)-1H-[1,2,4]triazol-3-yl]-benzoic acid] the melting point was 290 to 291 °C and 290 to 292 °C.
Compound `O=C(O)c1cccc(-c2ncn(-c3ccccc3F)n2)c1` [Compound 17, 3-[1-(2-Fluoro-phenyl)-1H-[1,2,4]triazol-3-yl]-benzoic acid] has a melting point of 239 to 241 °C.
In the case of `O=C(O)c1cccc(-c2ncn(-c3ccc(C(F)(F)F)cc3)n2)c1` [Compound 18, 3-[1-(4-Trifluoromethyl-phenyl)-1H-[1,2,4]triazol-3-yl]-benzoic acid], the melting point is reported as 141 to 143 °C.
Compound `O=C(O)c1cccc(-c2ncn(-c3ccc(OC(F)(F)F)cc3)n2)c1` [Compound 19, 3-[1-(4-Trifluoromethoxy-phenyl)-1H-[1,2,4]triazol-3-yl]-benzoic acid] has a melting point of 219 to 221 °C.
In the case of `O=C(O)c1cccc(-c2ncn(-c3cc(C(F)(F)F)cc(C(F)(F)F)c3)n2)c1` [Compound 20, 3-[1-(3,5-Bis-trifluoromethyl-phenyl)-1H-[1,2,4]triazol-3-yl]-benzoic acid], the melting point is reported as 271 to 273 °C.
For `CCc1ccccc1-n1cnc(-c2cccc(C(=O)O)c2)n1` [Compound 21, 3-[1-(2-Ethyl-phenyl)-1H-[1,2,4]triazol-3-yl]-benzoic acid], the melting point was 176 to 178 °C.
With `O=C(O)c1cccc(-c2ncn(-c3ccc(Br)cc3)n2)c1` [Compound 22, 3-[1-(4-Bromo-phenyl)-1H-[1,2,4]triazol-3-yl]-benzoic acid] the melting point was over 310 °C.
For `O=C(O)c1cccc(-c2ncn(-c3ccc([N+](=O)[O-])cc3)n2)c1` [Compound 23, 3-[1-(4-Nitro-phenyl)-1H-[1,2,4]triazol-3-yl]-benzoic acid], the melting point was 284 to 286 °C.
`O=C(O)c1cccc(-c2ncn(-c3ccc(-c4ccccc4)cc3)n2)c1` [Compound 24, 3-(1-Biphenyl-4-yl-1H-[1,2,4]triazol-3-yl)-benzoic acid] gave a melting point of 263 to 265 °C.
Work on `O=C(O)c1cccc(-c2ncn(-c3ccc(F)c(Cl)c3)n2)c1` [Compound 25, 3-[1-(3-Chloro-4-fluoro-phenyl)-1H-[1,2,4]triazol-3-yl]-benzoic acid] yielded a melting point of 270 to 272 °C.
In the case of `O=C(O)c1cccc(-c2ncn(-c3ccc(-c4cc5ccccc5o4)cc3)n2)c1` [Compound 26, 3-[1-(4-Benzofuran-2-yl-phenyl)-1H-[1,2,4]triazol-3-yl]-benzoic acid], the melting point is reported as 293 to 295 °C.
With `COc1ccc(-c2ccc(-n3cnc(-c4cccc(C(=O)O)c4)n3)cc2)cc1` [Compound 27, 3-[1-(4′-Methoxy-biphenyl-4-yl)-1H-[1,2,4]triazol-3-yl]-benzoic acid] the melting point was 243 to 246 °C.
For `CC(C)c1ccc(-c2ccc(-n3cnc(-c4cccc(C(=O)O)c4)n3)cc2)cc1` [Compound 28, 3-[1-(4′-Isopropyl-biphenyl-4-yl)-1H-[1,2,4]triazol-3-yl]-benzoic acid], the melting point was 225 to 228 °C.
In the case of `O=C(O)c1cccc(-c2ncn(-c3cccc(F)c3)n2)c1` [Compound 29, 3-[1-(3-Fluoro-phenyl)-1H-[1,2,4]triazol-3-yl]-benzoic acid], the melting point is reported as 266 to 268 °C.
With `O=C(O)c1cccc(-c2ncn(-c3ccccc3Br)n2)c1` [Compound 30, 3-[1-(2-Bromo-phenyl)-1H-[1,2,4]triazol-3-yl]-benzoic acid] the melting point was 245 to 247 °C.
`O=C(O)c1ccc(-n2cnc(-c3cccc(C(=O)O)c3)n2)cc1` [Compound 31, 4-[3-(3-Carboxy-phenyl)-[1,2,4]triazol-1-yl]-benzoic acid] showed a melting point of over 300 °C.
Work on `O=C(O)c1cccc(-c2ncn(-c3ccc(-c4ccc(F)cc4)cc3)n2)c1` [Compound 32, 3-[1-(4′-Fluoro-biphenyl-4-yl)-1H-[1,2,4]triazol-3-yl]-benzoic acid] yielded a melting point of 272 to 275 °C.
`Cc1nc(-c2cccc(C(=O)O)c2)nn1-c1ccc(Br)cc1` [Compound 33, 3-[1-(4-Bromo-phenyl)-5-methyl-1H-[1,2,4]triazol-3-yl]-benzoic acid] showed a melting point of 295 to 298 °C.
`Cc1nc(-c2cccc(C(=O)O)c2)nn1-c1cccc(F)c1` [Compound 34, 3-[1-(3-Fluoro-phenyl)-5-methyl-1H-[1,2,4]triazol-3-yl]-benzoic acid] showed a melting point of 236 to 238 °C.
For `O=C(O)c1cccc(-c2ncn(-c3cccc(Br)c3)n2)c1` [Compound 35, 3-[1-(3-Bromo-phenyl)-1H-[1,2,4]triazol-3-yl]-benzoic acid], the melting point was 253 to 255 °C.
With `O=C(O)c1cccc(-c2ncn(-c3ccccn3)n2)c1` [Compound 36, 3-(1-Pyridin-2-yl-1H-[1,2,4]triazol-3-yl)-benzoic acid] the melting point was 241 to 244 °C.
With `O=C(O)c1cccc(-c2ncn(-c3ccccc3)n2)c1` [Compound 37, 3-(1-Phenyl-1H-[1,2,4]triazol-3-yl)-benzoic acid] the melting point was 257 to 259 °C.
With `Cc1ccc(-n2cnc(-c3cccc(C(=O)O)c3)n2)cc1Cl` [Compound 38, 3-[1-(3-Chloro-4-methyl-phenyl)-1H-[1,2,4]triazol-3-yl]-benzoic acid] the melting point was 269 to 272 °C.
`Cc1cccc(-n2cnc(-c3cccc(C(=O)O)c3)n2)c1` [Compound 39, 3-(1-m-Tolyl-1H-[1,2,4]triazol-3-yl)-benzoic acid] gave a melting point of 223 to 225 °C.
Work on `Cc1ccccc1-n1cnc(-c2cccc(C(=O)O)c2)n1` [Compound 40, 3-(1-o-Tolyl-1H-[1,2,4]triazol-3-yl)-benzoic acid] yielded a melting point of 209 to 211 °C.
In the case of `Cc1ccccc1-n1nc(-c2cccc(C(=O)O)c2)[nH]c1=O` [Compound 41, 3-(5-Oxo-1-o-tolyl-4,5-dihydro-1H-[1,2,4]triazol-3-yl)-benzoic acid], the melting point is reported as over 310 °C.
Compound `O=C(O)c1cccc(-c2nn(-c3cccc(F)c3)c(=O)[nH]2)c1` [Compound 42, 3-[1-(3-Fluoro-phenyl)-5-oxo-4,5-dihydro-1H-[1,2,4]triazol-3-yl]-benzoic acid] has a melting point of over 310 °C.
`O=C(O)c1cccc(-c2ncn(-c3ccc(N4CCCC4=O)cc3)n2)c1` [Compound 43, 3-{1-[4-(2-Oxo-pyrrolidin-1-yl)-phenyl]-1H-[1,2,4]triazol-3-yl}-benzoic acid] gave a melting point of 270 to 273 °C.
`O=C(O)c1cccc(-c2ncn(-c3ccc(N4CCC4=O)cc3)n2)c1` [Compound 44, 3-{1-[4-(2-Oxo-azetidin-1-yl)-phenyl]-1H-[1,2,4]triazol-3-yl}-benzoic acid] showed a melting point of 295 to 297 °C.
`COc1ccc(-c2cnn(-c3cccc(C(=O)O)c3)c2)cc1` [Compound 47, 3-[4-(4-Methoxy-phenyl)-pyrazol-1-yl]-benzoic acid] showed a melting point of 238 to 239 °C.
Work on `Cc1ccc(-c2cnn(-c3cccc(C(=O)O)c3)c2)cc1` [Compound 48, 3-(4-p-Tolyl-pyrazol-1-yl)-benzoic acid] yielded a melting point of 208 to 209 °C.
Compound `O=C(O)c1cccc(-n2cc(-c3ccc(Cl)cc3)cn2)c1` [Compound 49, 3-[4-(4-Chloro-phenyl)-pyrazol-1-yl]-benzoic acid] has a melting point of 253 to 254 °C.
`COc1ccc(-c2cnn(-c3ccc(C(=O)O)cc3)c2)cc1` [Compound 50, 4-[4-(4-Methoxy-phenyl)-pyrazol-1-yl]-benzoic acid] gave a melting point of 289 to 290 °C.
With `Cc1ccc(-c2cnn(-c3ccc(C(=O)O)cc3)c2)cc1` [Compound 51, 4-(4-p-Tolyl-pyrazol-1-yl)-benzoic acid] the melting point was 298 to 299 °C.
For `O=C(O)c1ccc(-n2cc(-c3ccc(Cl)cc3)cn2)cc1` [Compound 52, 4-[4-(4-Chloro-phenyl)-pyrazol-1-yl]-benzoic acid], the melting point was 300 to 302 °C.
